According to patent US6355799B1, “Substituted benzene compounds, process for their preparation, and herbicidal and defoliant compositions containing them” (ISK Americas Incorporated, priority 1997, dated 2002):

What was measured:
Format in all cases: in vivo
[1] = test system: upland rice (Oryza sp., var. Tebonnet, RICE); assay: Pre-emerge test, crop safety; conditions: rating scale 0-100, 14 days after application
Summary of the method: (§1)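 Plants grown in 10 cm pots of sandy loam mix received acetone-dissolved compounds through a moving flat-fan nozzle. Doses ranged from 15 to 1000 g ai/ha. Pre-emerge pots were seeded one day earlier, post-emerge pots 8–21 days earlier. Fourteen days on, each pot was graded 0–100 for damage.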

[2] = test system: field corn (Zea mays L., var. Dekalb 535, CORN); assay: Pre-emerge test, crop safety; conditions: rating scale 0-100, 14 days after application
Summary of the method: as §1

[3] = test system: barnyardgrass (Echinochloa crus-galli, ECHCG); assay: Pre-emerge test, greenhouse herbicide activity screening; conditions: rating scale 0-100, 14 days after application
Summary of the method: (§2)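 Visual ratings on a 0-100 scale (0 no damage, 100 all plants dead) were taken at 14 days after treatment. Rates of 15-1000 g ai/ha in acetone, 187 l/ha, were sprayed onto soil one day after planting (pre-emerge) or onto 2-3 leaf plants with 0.25% v/v surfactant (post-emerge).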

[4] = test system: ivyleaf morningglory (Ipomoea hederacea, IPOHE); assay: as above; conditions: rating scale 0-100, 14 days after application
Summary of the method: as §2

[5] = test system: green foxtail (Setaria viridis, SETVI); assay: as above; conditions: rating scale 0-100, 14 days after application
Summary of the method: as §2

[6] = test system: sicklepod (Cassia obtusifolia, CASOB); assay: as above; conditions: rating scale 0-100, 14 days after application
Summary of the method: as §2

[7] = test system: johnsongrass (Sorghum halepense, SORHA); assay: as above; conditions: rating scale 0-100, 14 days after application
Summary of the method: as §2

[8] = test system: common ragweed (Ambrosia artemisizfolia L., AMBEL); assay: as above; conditions: rating scale 0-100, 14 days after application
Summary of the method: as §2

[9] = test system: lambsquarters (Chenopodium album, CHEAL); assay: as above; conditions: rating scale 0-100, 14 days after application
Summary of the method: as §2

[10] = test system: velvetleaf (Abutilon theophrasti, ABUTH); assay: as above; conditions: rating scale 0-100, 14 days after application
Summary of the method: as §2

[11] = test system: large crabgrass (Digitaria sanguinalis, DIGSA); assay: as above; conditions: rating scale 0-100, 14 days after application
Summary of the method: as §2

[12] = test system: barnyardgrass (Echinochloa crus-galli, ECHCG); assay: Post-emerge test, greenhouse herbicide activity screening; conditions: rating scale 0-100 (0 no damage, 100 complete death), 14 days after application
Summary of the method: (§3)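 Rating: 0–100 visual injury, 14 DAA. Application: acetone, 187 l/ha, 15–1000 g ai/ha, flat-fan track sprayer with nozzle 40–45 cm above soil or canopy. Post-emerge runs used 0.25% v/v surfactant on 2–3 leaf plants.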

[13] = test system: redroot pigweed (Amaranthus retroflexus, AMARE); assay: as above; conditions: rating scale 0-100 (0 no damage, 100 complete death), 14 days after application
Summary of the method: as §3

[14] = test system: ivyleaf morningglory (Ipomoea hederacea, IPOHE); assay: as above; conditions: rating scale 0-100 (0 no damage, 100 complete death), 14 days after application
Summary of the method: as §3

[15] = test system: green foxtail (Setaria viridis, SETVI); assay: as above; conditions: rating scale 0-100 (0 no damage, 100 complete death), 14 days after application
Summary of the method: as §3

[16] = test system: sicklepod (Cassia obtusifolia, CASOB); assay: as above; conditions: rating scale 0-100 (0 no damage, 100 complete death), 14 days after application
Summary of the method: as §3

[17] = test system: johnsongrass (Sorghum halepense, SORHA); assay: as above; conditions: rating scale 0-100 (0 no damage, 100 complete death), 14 days after application
Summary of the method: as §3

[18] = test system: lambsquarters (Chenopodium album, CHEAL); assay: as above; conditions: rating scale 0-100 (0 no damage, 100 complete death), 14 days after application
Summary of the method: as §3

[19] = test system: velvetleaf (Abutilon theophrasti, ABUTH); assay: as above; conditions: rating scale 0-100 (0 no damage, 100 complete death), 14 days after application
Summary of the method: as §3

[20] = test system: large crabgrass (Digitaria sanguinalis, DIGSA); assay: as above; conditions: rating scale 0-100 (0 no damage, 100 complete death), 14 days after application
Summary of the method: as §3

[21] = test system: upland rice (Oryza sp., var. Tebonnet, RICE); assay: Post-emerge test, crop safety; conditions: rating scale 0-100 (0 no damage, 100 complete death), 14 days after application
Summary of the method: as §2

[22] = test system: field corn (Zea mays L., var. Dekalb 535, CORN); assay: Post-emerge test, crop safety; conditions: rating scale 0-100 (0 no damage, 100 complete death), 14 days after application
Summary of the method: as §2

[23] = test system: redroot pigweed (Amaranthus retroflexus, AMARE); assay: Pre-emerge test, greenhouse herbicide activity screening; conditions: rating scale 0-100, 14 days after application
Summary of the method: as §1

Structure (SMILES): C=CCOC(=O)C(C)(Cl)Cc1c(OC)c(Cl)cc(F)c1-n1c(=O)cc(C(F)(F)F)n(C)c1=O (centres unmarked) [14-43]
- Pre-emerge phytotoxicity rating, crop damage RICE ([1]; 63 g ai/ha): 10
- Pre-emerge phytotoxicity rating, crop damage RICE ([1]; 250 g ai/ha): 40
- Pre-emerge phytotoxicity rating, crop damage CORN ([2]; 63 g ai/ha): 0
- Pre-emerge phytotoxicity rating, crop damage CORN ([2]; 250 g ai/ha): 20
- Pre-emerge herbicidal activity, phytotoxicity rating ECHCG ([3]; 63 g ai/ha): 0
- Pre-emerge herbicidal activity, phytotoxicity rating ECHCG ([3]; 250 g ai/ha): 80
- Pre-emerge herbicidal activity, phytotoxicity rating IPOHE ([4]; 63 g ai/ha): 0
- Pre-emerge herbicidal activity, phytotoxicity rating IPOHE ([4]; 250 g ai/ha): 0
- Pre-emerge herbicidal activity, phytotoxicity rating SETVI ([5]; 63 g ai/ha): 30
- Pre-emerge herbicidal activity, phytotoxicity rating SETVI ([5]; 250 g ai/ha): 95
- Pre-emerge herbicidal activity, phytotoxicity rating CASOB ([6]; 63 g ai/ha): 0
- Pre-emerge herbicidal activity, phytotoxicity rating CASOB ([6]; 250 g ai/ha): 0
- Pre-emerge herbicidal activity, phytotoxicity rating SORHA ([7]; 63 g ai/ha): 20
- Pre-emerge herbicidal activity, phytotoxicity rating SORHA ([7]; 250 g ai/ha): 30
- Pre-emerge herbicidal activity, phytotoxicity rating AMBEL ([8]; 63 g ai/ha): 0
- Pre-emerge herbicidal activity, phytotoxicity rating AMBEL ([8]; 250 g ai/ha): 100
- Pre-emerge herbicidal activity, phytotoxicity rating CHEAL ([9]; 63 g ai/ha): 100
- Pre-emerge herbicidal activity, phytotoxicity rating CHEAL ([9]; 250 g ai/ha): 100
- Pre-emerge herbicidal activity, phytotoxicity rating ABUTH ([10]; 63 g ai/ha): 90
- Pre-emerge herbicidal activity, phytotoxicity rating ABUTH ([10]; 250 g ai/ha): 100
- Pre-emerge herbicidal activity, phytotoxicity rating DIGSA ([11]; 63 g ai/ha): 80
- Pre-emerge herbicidal activity, phytotoxicity rating DIGSA ([11]; 250 g ai/ha): 100
- Post-emerge Herbicidal Activity, phytotoxicity rating ECHCG ([12]; Rate 63 g ai/ha): 100
- Post-emerge Herbicidal Activity, phytotoxicity rating ECHCG ([12]; Rate 250 g ai/ha): 100
- Post-emerge Herbicidal Activity, phytotoxicity rating AMARE ([13]; Rate 63 g ai/ha): 100
- Post-emerge Herbicidal Activity, phytotoxicity rating AMARE ([13]; Rate 250 g ai/ha): 100
- Post-emerge Herbicidal Activity, phytotoxicity rating IPOHE ([14]; Rate 63 g ai/ha): 95
- Post-emerge Herbicidal Activity, phytotoxicity rating IPOHE ([14]; Rate 250 g ai/ha): 100
- Post-emerge Herbicidal Activity, phytotoxicity rating SETVI ([15]; Rate 63 g ai/ha): 90
- Post-emerge Herbicidal Activity, phytotoxicity rating SETVI ([15]; Rate 250 g ai/ha): 100
- Post-emerge Herbicidal Activity, phytotoxicity rating CASOB ([16]; Rate 63 g ai/ha): 40
- Post-emerge Herbicidal Activity, phytotoxicity rating CASOB ([16]; Rate 250 g ai/ha): 90
- Post-emerge Herbicidal Activity, phytotoxicity rating SORHA ([17]; Rate 63 g ai/ha): 80
- Post-emerge Herbicidal Activity, phytotoxicity rating SORHA ([17]; Rate 250 g ai/ha): 95
- Post-emerge Herbicidal Activity, phytotoxicity rating CHEAL ([18]; Rate 63 g ai/ha): 100
- Post-emerge Herbicidal Activity, phytotoxicity rating CHEAL ([18]; Rate 250 g ai/ha): 100
- Post-emerge Herbicidal Activity, phytotoxicity rating ABUTH ([19]; Rate 63 g ai/ha): 100
- Post-emerge Herbicidal Activity, phytotoxicity rating ABUTH ([19]; Rate 250 g ai/ha): 100
- Post-emerge Herbicidal Activity, phytotoxicity rating DIGSA ([20]; Rate 63 g ai/ha): 80
- Post-emerge Herbicidal Activity, phytotoxicity rating DIGSA ([20]; Rate 250 g ai/ha): 100
- Post-emerge phytotoxicity rating RICE (crop damage) ([21]; Rate 63 g ai/ha): 95
- Post-emerge phytotoxicity rating RICE (crop damage) ([21]; Rate 250 g ai/ha): 100
- Post-emerge phytotoxicity rating CORN (crop damage) ([22]; Rate 63 g ai/ha): 95
- Post-emerge phytotoxicity rating CORN (crop damage) ([22]; Rate 250 g ai/ha): 100
- Pre-emerge herbicidal activity, phytotoxicity rating AMARE ([23]; 63 g ai/ha): 100
- Pre-emerge herbicidal activity, phytotoxicity rating AMARE ([23]; 250 g ai/ha): 100

Structure (SMILES): COc1c(Cl)cc(F)c(-n2c(=O)cc(C(F)(F)F)n(C)c2=O)c1CC(C)(Cl)C(=O)OC(C(F)(F)F)C(F)(F)F (centres unmarked) [14-46]
- Pre-emerge phytotoxicity rating, crop damage RICE ([1]; 63 g ai/ha): 0
- Pre-emerge phytotoxicity rating, crop damage RICE ([1]; 250 g ai/ha): 30
- Pre-emerge phytotoxicity rating, crop damage CORN ([2]; 63 g ai/ha): 0
- Pre-emerge phytotoxicity rating, crop damage CORN ([2]; 250 g ai/ha): 0
- Pre-emerge herbicidal activity, phytotoxicity rating ECHCG ([3]; 63 g ai/ha): 0
- Pre-emerge herbicidal activity, phytotoxicity rating ECHCG ([3]; 250 g ai/ha): 0
- Pre-emerge herbicidal activity, phytotoxicity rating IPOHE ([4]; 63 g ai/ha): 0
- Pre-emerge herbicidal activity, phytotoxicity rating IPOHE ([4]; 250 g ai/ha): 0
- Pre-emerge herbicidal activity, phytotoxicity rating SETVI ([5]; 63 g ai/ha): 0
- Pre-emerge herbicidal activity, phytotoxicity rating SETVI ([5]; 250 g ai/ha): 0
- Pre-emerge herbicidal activity, phytotoxicity rating CASOB ([6]; 63 g ai/ha): 0
- Pre-emerge herbicidal activity, phytotoxicity rating CASOB ([6]; 250 g ai/ha): 0
- Pre-emerge herbicidal activity, phytotoxicity rating SORHA ([7]; 63 g ai/ha): 0
- Pre-emerge herbicidal activity, phytotoxicity rating SORHA ([7]; 250 g ai/ha): 0
- Pre-emerge herbicidal activity, phytotoxicity rating AMBEL ([8]; 63 g ai/ha): 50
- Pre-emerge herbicidal activity, phytotoxicity rating AMBEL ([8]; 250 g ai/ha): 100
- Pre-emerge herbicidal activity, phytotoxicity rating CHEAL ([9]; 63 g ai/ha): 0
- Pre-emerge herbicidal activity, phytotoxicity rating CHEAL ([9]; 250 g ai/ha): 90
- Pre-emerge herbicidal activity, phytotoxicity rating ABUTH ([10]; 63 g ai/ha): 80
- Pre-emerge herbicidal activity, phytotoxicity rating ABUTH ([10]; 250 g ai/ha): 100
- Pre-emerge herbicidal activity, phytotoxicity rating DIGSA ([11]; 63 g ai/ha): 0
- Pre-emerge herbicidal activity, phytotoxicity rating DIGSA ([11]; 250 g ai/ha): 0
- Post-emerge Herbicidal Activity, phytotoxicity rating ECHCG ([12]; Rate 63 g ai/ha): 100
- Post-emerge Herbicidal Activity, phytotoxicity rating ECHCG ([12]; Rate 250 g ai/ha): 100
- Post-emerge Herbicidal Activity, phytotoxicity rating AMARE ([13]; Rate 63 g ai/ha): 95
- Post-emerge Herbicidal Activity, phytotoxicity rating AMARE ([13]; Rate 250 g ai/ha): 100
- Post-emerge Herbicidal Activity, phytotoxicity rating IPOHE ([14]; Rate 63 g ai/ha): 100
- Post-emerge Herbicidal Activity, phytotoxicity rating IPOHE ([14]; Rate 250 g ai/ha): 100
- Post-emerge Herbicidal Activity, phytotoxicity rating SETVI ([15]; Rate 63 g ai/ha): 90
- Post-emerge Herbicidal Activity, phytotoxicity rating SETVI ([15]; Rate 250 g ai/ha): 100
- Post-emerge Herbicidal Activity, phytotoxicity rating CASOB ([16]; Rate 63 g ai/ha): 60
- Post-emerge Herbicidal Activity, phytotoxicity rating CASOB ([16]; Rate 250 g ai/ha): 90
- Post-emerge Herbicidal Activity, phytotoxicity rating SORHA ([17]; Rate 63 g ai/ha): 80
- Post-emerge Herbicidal Activity, phytotoxicity rating SORHA ([17]; Rate 250 g ai/ha): 90
- Post-emerge Herbicidal Activity, phytotoxicity rating CHEAL ([18]; Rate 63 g ai/ha): 100
- Post-emerge Herbicidal Activity, phytotoxicity rating CHEAL ([18]; Rate 250 g ai/ha): 100
- Post-emerge Herbicidal Activity, phytotoxicity rating ABUTH ([19]; Rate 63 g ai/ha): 100
- Post-emerge Herbicidal Activity, phytotoxicity rating ABUTH ([19]; Rate 250 g ai/ha): 100
- Post-emerge Herbicidal Activity, phytotoxicity rating DIGSA ([20]; Rate 63 g ai/ha): 80
- Post-emerge Herbicidal Activity, phytotoxicity rating DIGSA ([20]; Rate 250 g ai/ha): 100
- Post-emerge phytotoxicity rating RICE (crop damage) ([21]; Rate 63 g ai/ha): 60
- Post-emerge phytotoxicity rating RICE (crop damage) ([21]; Rate 250 g ai/ha): 100
- Post-emerge phytotoxicity rating CORN (crop damage) ([22]; Rate 63 g ai/ha): 95
- Post-emerge phytotoxicity rating CORN (crop damage) ([22]; Rate 250 g ai/ha): 100
- Pre-emerge herbicidal activity, phytotoxicity rating AMARE ([23]; 63 g ai/ha): 60
- Pre-emerge herbicidal activity, phytotoxicity rating AMARE ([23]; 250 g ai/ha): 95
